Assay results reported in ChEMBL document CHEMBL5444388, “Affinity Phenotypic Cellular Literature for EUbOPEN Chemogenomic Library” (2024).

Experiments:
Assay type in all cases: functional, cell-based
Set-up in all cases: recommended concentration 100 nM
[1] = biological target: Centromere-associated protein E (Homo sapiens) (UniProt Q02224); experiment: Affinity Phenotypic Cellular interaction: (Cell-growth inhibition assays (growth inhibitory effect colon cancer cell line Raji)) EUB0000734a CENPE; conditions: Affinity Phenotypic Cellular Source Knowledge https://pubmed.ncbi.nlm.nih.gov/20167803/
[2] = biological target: Centromere-associated protein E (Homo sapiens) (UniProt Q02224); experiment: Affinity Phenotypic Cellular interaction: (Cell-growth inhibition assays (growth inhibitory effect colon cancer cell line CAL-62)) EUB0000734a CENPE; conditions: Affinity Phenotypic Cellular Source Knowledge https://pubmed.ncbi.nlm.nih.gov/20167803/
[3] = biological target: Centromere-associated protein E (Homo sapiens) (UniProt Q02224); experiment: Affinity Phenotypic Cellular interaction: (Cell-growth inhibition assays (growth inhibitory effect colon cancer cell line 22Rv1)) EUB0000734a CENPE; conditions: CWR22R, Affinity Phenotypic Cellular Source Knowledge https://pubmed.ncbi.nlm.nih.gov/20167803/
[4] = biological target: Centromere-associated protein E (Homo sapiens) (UniProt Q02224); experiment: Affinity Phenotypic Cellular interaction: (Cell-growth inhibition assays (growth inhibitory effect colon cancer cell line COLO205)) EUB0000734a CENPE; conditions: COLO 205, Affinity Phenotypic Cellular Source Knowledge https://pubmed.ncbi.nlm.nih.gov/20167803/
[5] = biological target: Centromere-associated protein E (Homo sapiens) (UniProt Q02224); experiment: Affinity Phenotypic Cellular interaction: (Cell-growth inhibition assays (growth inhibitory effect colon cancer cell line ES-2)) EUB0000734a CENPE; conditions: Affinity Phenotypic Cellular Source Knowledge https://pubmed.ncbi.nlm.nih.gov/20167803/
[6] = biological target: Centromere-associated protein E (Homo sapiens) (UniProt Q02224); experiment: Affinity Phenotypic Cellular interaction: (Cell-growth inhibition assays (growth inhibitory effect colon cancer cell line EKVX)) EUB0000734a CENPE; conditions: Affinity Phenotypic Cellular Source Knowledge https://pubmed.ncbi.nlm.nih.gov/20167803/
[7] = biological target: Centromere-associated protein E (Homo sapiens) (UniProt Q02224); experiment: Affinity Phenotypic Cellular interaction: (Cell-growth inhibition assays (growth inhibitory effect colon cancer cell line HCC1954)) EUB0000734a CENPE; conditions: Affinity Phenotypic Cellular Source Knowledge https://pubmed.ncbi.nlm.nih.gov/20167803/
[8] = biological target: Centromere-associated protein E (Homo sapiens) (UniProt Q02224); experiment: Affinity Phenotypic Cellular interaction: (Cell-growth inhibition assays (growth inhibitory effect colon cancer cell line YAPC)) EUB0000734a CENPE; conditions: Affinity Phenotypic Cellular Source Knowledge https://pubmed.ncbi.nlm.nih.gov/20167803/
[9] = biological target: Centromere-associated protein E (Homo sapiens) (UniProt Q02224); experiment: Affinity Phenotypic Cellular interaction: (Cell-growth inhibition assays (growth inhibitory effect colon cancer cell line COLO-320DM)) EUB0000734a CENPE; conditions: Affinity Phenotypic Cellular Source Knowledge https://pubmed.ncbi.nlm.nih.gov/20167803/
[10] = biological target: Centromere-associated protein E (Homo sapiens) (UniProt Q02224); experiment: Affinity Phenotypic Cellular interaction: (Cell-growth inhibition assays (growth inhibitory effect colon cancer cell line HCC1143)) EUB0000734a CENPE; conditions: Affinity Phenotypic Cellular Source Knowledge https://pubmed.ncbi.nlm.nih.gov/20167803/
[11] = biological target: Centromere-associated protein E (Homo sapiens) (UniProt Q02224); experiment: Affinity Phenotypic Cellular interaction: (Cell-growth inhibition assays (growth inhibitory effect colon cancer cell line SW48)) EUB0000734a CENPE; conditions: Affinity Phenotypic Cellular Source Knowledge https://pubmed.ncbi.nlm.nih.gov/20167803/
[12] = biological target: Centromere-associated protein E (Homo sapiens) (UniProt Q02224); experiment: Affinity Phenotypic Cellular interaction: (Cell-growth inhibition assays (growth inhibitory effect colon cancer cell line SF-539)) EUB0000734a CENPE; conditions: Affinity Phenotypic Cellular Source Knowledge https://pubmed.ncbi.nlm.nih.gov/20167803/
[13] = biological target: Centromere-associated protein E (Homo sapiens) (UniProt Q02224); experiment: Affinity Phenotypic Cellular interaction: (Cell-growth inhibition assays (growth inhibitory effect colon cancer cell line H4)) EUB0000734a CENPE; conditions: Affinity Phenotypic Cellular Source Knowledge https://pubmed.ncbi.nlm.nih.gov/20167803/
[14] = biological target: Centromere-associated protein E (Homo sapiens) (UniProt Q02224); experiment: Affinity Phenotypic Cellular interaction: (Cell-growth inhibition assays (growth inhibitory effect colon cancer cell line RPMI6666)) EUB0000734a CENPE; conditions: RPMI-6666, Affinity Phenotypic Cellular Source Knowledge https://pubmed.ncbi.nlm.nih.gov/20167803/
[15] = biological target: Centromere-associated protein E (Homo sapiens) (UniProt Q02224); experiment: Affinity Phenotypic Cellular interaction: (Cell-growth inhibition assays (growth inhibitory effect colon cancer cell line WiDr)) EUB0000734a CENPE; conditions: Affinity Phenotypic Cellular Source Knowledge https://pubmed.ncbi.nlm.nih.gov/20167803/
[16] = biological target: Centromere-associated protein E (Homo sapiens) (UniProt Q02224); experiment: Affinity Phenotypic Cellular interaction: (Cell-growth inhibition assays (growth inhibitory effect colon cancer cell line SHP-77)) EUB0000734a CENPE; conditions: SHP77, Affinity Phenotypic Cellular Source Knowledge https://pubmed.ncbi.nlm.nih.gov/20167803/
[17] = biological target: Centromere-associated protein E (Homo sapiens) (UniProt Q02224); experiment: Affinity Phenotypic Cellular interaction: (Cell-growth inhibition assays (growth inhibitory effect colon cancer cell line SK-NEP-1)) EUB0000734a CENPE; conditions: Affinity Phenotypic Cellular Source Knowledge https://pubmed.ncbi.nlm.nih.gov/20167803/
[18] = biological target: Centromere-associated protein E (Homo sapiens) (UniProt Q02224); experiment: Affinity Phenotypic Cellular interaction: (Cell-growth inhibition assays (growth inhibitory effect colon cancer cell line SW480)) EUB0000734a CENPE; conditions: Affinity Phenotypic Cellular Source Knowledge https://pubmed.ncbi.nlm.nih.gov/20167803/
[19] = biological target: Centromere-associated protein E (Homo sapiens) (UniProt Q02224); experiment: Affinity Phenotypic Cellular interaction: (Cell-growth inhibition assays (growth inhibitory effect colon cancer cell line Caki-2)) EUB0000734a CENPE; conditions: Affinity Phenotypic Cellular Source Knowledge https://pubmed.ncbi.nlm.nih.gov/20167803/
[20] = biological target: Centromere-associated protein E (Homo sapiens) (UniProt Q02224); experiment: Affinity Phenotypic Cellular interaction: (Cell-growth inhibition assays (growth inhibitory effect colon cancer cell line BC-3)) EUB0000734a CENPE; conditions: Affinity Phenotypic Cellular Source Knowledge https://pubmed.ncbi.nlm.nih.gov/20167803/
[21] = biological target: Centromere-associated protein E (Homo sapiens) (UniProt Q02224); experiment: Affinity Phenotypic Cellular interaction: (Cell-growth inhibition assays (growth inhibitory effect thyroid cancer cell line SW579)) EUB0000734a CENPE; conditions: Affinity Phenotypic Cellular Source Knowledge https://pubmed.ncbi.nlm.nih.gov/20167803/
[22] = biological target: Centromere-associated protein E (Homo sapiens) (UniProt Q02224); experiment: Affinity Phenotypic Cellular interaction: (Cell-growth inhibition assays (growth inhibitory effect colon cancer cell line RD)) EUB0000734a CENPE; conditions: Affinity Phenotypic Cellular Source Knowledge https://pubmed.ncbi.nlm.nih.gov/20167803/
[23] = biological target: Centromere-associated protein E (Homo sapiens) (UniProt Q02224); experiment: Affinity Phenotypic Cellular interaction: (Cell-growth inhibition assays (growth inhibitory effect colon cancer cell line CHP-212)) EUB0000734a CENPE; conditions: Affinity Phenotypic Cellular Source Knowledge https://pubmed.ncbi.nlm.nih.gov/20167803/
[24] = biological target: Centromere-associated protein E (Homo sapiens) (UniProt Q02224); experiment: Affinity Phenotypic Cellular interaction: (Cell-growth inhibition assays (growth inhibitory effect colon cancer cell line RL)) EUB0000734a CENPE; conditions: Affinity Phenotypic Cellular Source Knowledge https://pubmed.ncbi.nlm.nih.gov/20167803/
[25] = biological target: Centromere-associated protein E (Homo sapiens) (UniProt Q02224); experiment: Affinity Phenotypic Cellular interaction: (Cell-growth inhibition assays (growth inhibitory effect colon cancer cell line SNB-19)) EUB0000734a CENPE; conditions: Affinity Phenotypic Cellular Source Knowledge https://pubmed.ncbi.nlm.nih.gov/20167803/

Chain of Centromere-associated protein E (Homo sapiens) (Q02224 whole entry): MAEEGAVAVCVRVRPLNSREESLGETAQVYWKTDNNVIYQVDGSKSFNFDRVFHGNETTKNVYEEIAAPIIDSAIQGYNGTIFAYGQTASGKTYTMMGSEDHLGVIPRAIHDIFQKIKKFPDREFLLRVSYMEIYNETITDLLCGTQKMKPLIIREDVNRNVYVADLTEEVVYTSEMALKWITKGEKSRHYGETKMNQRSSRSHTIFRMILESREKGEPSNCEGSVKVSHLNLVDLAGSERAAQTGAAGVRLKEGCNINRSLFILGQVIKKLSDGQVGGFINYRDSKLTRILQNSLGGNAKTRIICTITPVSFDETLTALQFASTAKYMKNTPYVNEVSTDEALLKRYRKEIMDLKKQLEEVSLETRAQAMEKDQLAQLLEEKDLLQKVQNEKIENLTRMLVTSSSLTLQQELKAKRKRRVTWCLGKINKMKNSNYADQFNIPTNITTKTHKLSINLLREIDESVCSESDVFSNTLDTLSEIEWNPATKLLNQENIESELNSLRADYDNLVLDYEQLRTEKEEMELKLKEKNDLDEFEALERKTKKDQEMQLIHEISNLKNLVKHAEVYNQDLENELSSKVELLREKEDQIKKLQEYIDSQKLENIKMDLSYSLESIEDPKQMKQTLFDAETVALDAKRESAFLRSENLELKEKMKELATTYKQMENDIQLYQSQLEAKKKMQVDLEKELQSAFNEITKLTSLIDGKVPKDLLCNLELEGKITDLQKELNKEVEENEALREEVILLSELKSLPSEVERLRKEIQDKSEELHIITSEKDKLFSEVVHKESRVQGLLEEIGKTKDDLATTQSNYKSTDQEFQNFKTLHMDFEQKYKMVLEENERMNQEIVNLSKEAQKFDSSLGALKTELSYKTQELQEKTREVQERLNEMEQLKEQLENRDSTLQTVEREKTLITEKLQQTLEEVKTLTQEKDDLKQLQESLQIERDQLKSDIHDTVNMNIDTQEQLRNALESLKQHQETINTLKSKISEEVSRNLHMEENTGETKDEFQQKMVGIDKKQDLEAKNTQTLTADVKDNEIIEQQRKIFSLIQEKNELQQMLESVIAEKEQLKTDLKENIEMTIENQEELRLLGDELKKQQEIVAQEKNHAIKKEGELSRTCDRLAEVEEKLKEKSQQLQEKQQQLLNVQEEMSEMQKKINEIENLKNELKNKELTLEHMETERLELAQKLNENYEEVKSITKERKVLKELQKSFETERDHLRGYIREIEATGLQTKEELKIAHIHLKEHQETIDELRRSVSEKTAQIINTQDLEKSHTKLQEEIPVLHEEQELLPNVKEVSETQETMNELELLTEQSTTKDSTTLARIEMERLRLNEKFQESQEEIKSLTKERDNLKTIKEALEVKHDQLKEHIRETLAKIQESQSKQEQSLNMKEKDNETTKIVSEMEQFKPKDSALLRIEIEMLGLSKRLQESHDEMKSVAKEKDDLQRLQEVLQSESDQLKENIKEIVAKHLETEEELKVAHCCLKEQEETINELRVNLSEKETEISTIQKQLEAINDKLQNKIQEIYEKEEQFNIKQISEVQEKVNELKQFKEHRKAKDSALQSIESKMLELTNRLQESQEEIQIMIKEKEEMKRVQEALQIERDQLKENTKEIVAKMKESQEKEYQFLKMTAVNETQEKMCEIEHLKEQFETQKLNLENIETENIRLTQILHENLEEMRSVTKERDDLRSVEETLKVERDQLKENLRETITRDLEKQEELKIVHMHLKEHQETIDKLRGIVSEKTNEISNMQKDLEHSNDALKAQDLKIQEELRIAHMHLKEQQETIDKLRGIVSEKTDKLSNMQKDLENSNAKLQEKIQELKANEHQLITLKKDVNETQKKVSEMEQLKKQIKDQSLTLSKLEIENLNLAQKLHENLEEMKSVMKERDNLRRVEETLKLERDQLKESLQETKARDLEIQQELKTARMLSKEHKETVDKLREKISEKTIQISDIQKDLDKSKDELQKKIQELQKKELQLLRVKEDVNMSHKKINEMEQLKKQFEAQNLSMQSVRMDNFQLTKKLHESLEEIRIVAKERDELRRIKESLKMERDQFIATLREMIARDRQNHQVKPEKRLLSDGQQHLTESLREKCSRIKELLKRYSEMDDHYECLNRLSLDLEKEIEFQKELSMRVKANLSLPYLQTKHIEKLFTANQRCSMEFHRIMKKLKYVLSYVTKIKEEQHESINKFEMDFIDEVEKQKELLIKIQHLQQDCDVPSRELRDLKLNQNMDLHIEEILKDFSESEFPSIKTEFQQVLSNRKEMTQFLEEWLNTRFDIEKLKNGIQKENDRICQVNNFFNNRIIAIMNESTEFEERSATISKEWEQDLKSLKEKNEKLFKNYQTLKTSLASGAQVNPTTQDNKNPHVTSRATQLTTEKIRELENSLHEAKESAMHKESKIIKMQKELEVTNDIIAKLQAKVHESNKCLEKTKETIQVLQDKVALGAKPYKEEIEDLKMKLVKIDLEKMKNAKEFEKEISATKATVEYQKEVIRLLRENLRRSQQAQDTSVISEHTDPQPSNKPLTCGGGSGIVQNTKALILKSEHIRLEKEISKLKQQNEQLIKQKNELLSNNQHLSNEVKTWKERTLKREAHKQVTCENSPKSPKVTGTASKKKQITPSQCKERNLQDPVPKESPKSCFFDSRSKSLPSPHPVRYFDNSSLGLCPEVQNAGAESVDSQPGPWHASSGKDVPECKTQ

CC(C)Oc1ccc(C(=O)N[C@H](CNC(=O)CN(C)C)Cc2ccc(-c3cn4cccc([C@H](C)O)c4n3)cc2)cc1Cl
GIC50 [1]: 41 nM
GIC50 [2]: 30 nM
GIC50 [3]: 29 nM
GIC50 [4]: 25 nM
GIC50 [5]: 30 nM
GIC50 [6]: 28 nM
GIC50 [7]: 18 nM
GIC50 [8]: 59 nM
GIC50 [9]: 306 nM
GIC50 [10]: 27 nM
GIC50 [11]: 25 nM
GIC50 [12]: 28 nM
GIC50 [13]: 31 nM
GIC50 [14]: 88 nM
GIC50 [15]: 18 nM
GIC50 [16]: 86 nM
GIC50 [17]: 55 nM
GIC50 [18]: 33 nM
GIC50 [19]: 25 nM
GIC50 [20]: 88 nM
GIC50 [21]: 26 nM
GIC50 [22]: 28 nM
GIC50 [23]: 34 nM
GIC50 [24]: 37 nM
GIC50 [25]: 28 nM
